For assay [1], the system named is 26_ds (RNA, hairpin) CAAUCGGAUCGAAUUCGAUCCGAUUG
Kind of assay: fluorescent intercalator displacement (FID). The conditions noted are these: 10 mM KCl + 10 mM potassium phosphate (20 mM K+); pH 7, room temperature; 0.25 µM RNA; 0.5 µM thiazole orange displaced.

In assay [2] the test system is 22_TERRA (RNA, G4) AGGGUUAGGGUUAGGGUUAGGG
Kind of assay: fluorescent intercalator displacement (FID). The conditions noted are these: 10 mM KCl + 10 mM potassium phosphate (20 mM K+); pH 7, room temperature; 0.25 µM RNA; 0.5 µM thiazole orange displaced.

Assay [3] concerns 22_TERRA_2Ap19 (RNA, G4, 2-aminopurine at 19) AGGGUUAGGGUUAGGGUUAGGG
Kind of assay: 2-aminopurine fluorescence quenching. The conditions noted are these: 10 mM KCl + 10 mM potassium phosphate; pH 7.0, room temperature; 2.5 μM RNA; 2.5 or 5 μM compound.

Assay [4] relates to 22_TERRA_2Ap13 (RNA, G4, 2-aminopurine at 13) AGGGUUAGGGUUAGGGUUAGGG
Kind of assay: 2-aminopurine fluorescence quenching. The conditions noted are these: 10 mM KCl + 10 mM potassium phosphate; pH 7.0, room temperature; 2.5 μM RNA; 2.5 or 5 μM compound.

The subject of assay [5] is 22_TERRA_2Ap7 (RNA, G4, 2-aminopurine at 7) AGGGUUAGGGUUAGGGUUAGGG
Description: 2-aminopurine fluorescence quenching. The conditions noted are these: 10 mM KCl + 10 mM potassium phosphate; pH 7.0, room temperature; 2.5 μM RNA; 2.5 or 5 μM compound.

Values joined by “and” are separate entries in the source; they are usually repeats but may differ in a detail not shown here. Identical values can stand only once.

This note sets out measurements from PMC7471899 (2020).

Consider `C(=NC(COCc1ccc(COCC(N=Cc2ccccn2)c2ccccc2)cc1)c1ccccc1)c1ccccn1.C(=NC(COCc1ccc(COCC(N=Cc2ccccn2)c2ccccc2)cc1)c1ccccc1)c1ccccn1.C(=NC(COCc1ccc(COCC(N=Cc2ccccn2)c2ccccc2)cc1)c1ccccc1)c1ccccn1.[Fe+2].[Fe+2]` (stereo not shown) [5a], for which the DC50 is 720 ± 20 nM and 950 ± 80 nM in assay [1]; 470 ± 50 nM and 570 ± 60 nM in assay [2].
Turning to `C(=NC(COCc1cccc(COCC(N=Cc2ccccn2)c2ccccc2)c1)c1ccccc1)c1ccccn1.C(=NC(COCc1cccc(COCC(N=Cc2ccccn2)c2ccccc2)c1)c1ccccc1)c1ccccn1.C(=NC(COCc1cccc(COCC(N=Cc2ccccn2)c2ccccc2)c1)c1ccccc1)c1ccccn1.[Fe+2].[Fe+2]` (stereo not shown) [5b], the binding result in assay [3], in assay [4] and in assay [5] was “yes” each time. Besides, the DC50 is 1470 ± 90 nM and 1580 ± 100 nM in assay [1]; 410 ± 40 nM and 270 ± 20 nM in assay [2].
As to `C(=NC(COCc1ccc(-c2ccc(COCC(N=Cc3ccccn3)c3ccccc3)cc2)cc1)c1ccccc1)c1ccccn1.C(=NC(COCc1ccc(-c2ccc(COCC(N=Cc3ccccn3)c3ccccc3)cc2)cc1)c1ccccc1)c1ccccn1.C(=NC(COCc1ccc(-c2ccc(COCC(N=Cc3ccccn3)c3ccccc3)cc2)cc1)c1ccccc1)c1ccccn1.[Fe+2].[Fe+2]` (stereo not shown) [5c], the DC50 is 830 ± 40 nM and 900 ± 70 nM in assay [1]; 590 ± 40 nM and 690 ± 60 nM in assay [2].
With `C(=NC(COCc1ccc(Oc2ccc(COCC(N=Cc3ccccn3)c3ccccc3)cc2)cc1)c1ccccc1)c1ccccn1.C(=NC(COCc1ccc(Oc2ccc(COCC(N=Cc3ccccn3)c3ccccc3)cc2)cc1)c1ccccc1)c1ccccn1.C(=NC(COCc1ccc(Oc2ccc(COCC(N=Cc3ccccn3)c3ccccc3)cc2)cc1)c1ccccc1)c1ccccn1.[Fe+2].[Fe+2]` (stereo not shown) [5d], the DC50 in assay [1] was 760 ± 30 nM and 820 ± 30 nM; in assay [2] it was 590 ± 10 nM and 610 ± 20 nM.
In the case of `C(=NC(COCc1ccc(Sc2ccc(COCC(N=Cc3ccccn3)c3ccccc3)cc2)cc1)c1ccccc1)c1ccccn1.C(=NC(COCc1ccc(Sc2ccc(COCC(N=Cc3ccccn3)c3ccccc3)cc2)cc1)c1ccccc1)c1ccccn1.C(=NC(COCc1ccc(Sc2ccc(COCC(N=Cc3ccccn3)c3ccccc3)cc2)cc1)c1ccccc1)c1ccccn1.[Fe+2].[Fe+2]` (stereo not shown) [5e], the DC50 in assay [1] is 910 ± 40 nM and 930 ± 30 nM; in assay [2], 680 ± 30 nM and 660 ± 20 nM.
On to `C(=NC(COCc1ccc(Cc2ccc(COCC(N=Cc3ccccn3)c3ccccc3)cc2)cc1)c1ccccc1)c1ccccn1.C(=NC(COCc1ccc(Cc2ccc(COCC(N=Cc3ccccn3)c3ccccc3)cc2)cc1)c1ccccc1)c1ccccn1.C(=NC(COCc1ccc(Cc2ccc(COCC(N=Cc3ccccn3)c3ccccc3)cc2)cc1)c1ccccc1)c1ccccn1.[Fe+2].[Fe+2]` (stereo not shown) [5f], for which the DC50 in assay [1] is 720 ± 70 nM and 800 ± 50 nM; in assay [2], 470 ± 50 nM and 600 ± 60 nM.
As to `C(=NC(COCc1ccc(CCc2ccc(COCC(N=Cc3ccccn3)c3ccccc3)cc2)cc1)c1ccccc1)c1ccccn1.C(=NC(COCc1ccc(CCc2ccc(COCC(N=Cc3ccccn3)c3ccccc3)cc2)cc1)c1ccccc1)c1ccccn1.C(=NC(COCc1ccc(CCc2ccc(COCC(N=Cc3ccccn3)c3ccccc3)cc2)cc1)c1ccccc1)c1ccccn1.[Fe+2].[Fe+2]` (stereo not shown) [5g], the DC50 in assay [1] was 780 ± 40 nM and 770 ± 50 nM; in assay [2], 510 ± 30 nM and 570 ± 50 nM.
For the compound `C(=NC(COCc1ccc2oc3ccc(COCC(N=Cc4ccccn4)c4ccccc4)cc3c2c1)c1ccccc1)c1ccccn1.C(=NC(COCc1ccc2oc3ccc(COCC(N=Cc4ccccn4)c4ccccc4)cc3c2c1)c1ccccc1)c1ccccn1.C(=NC(COCc1ccc2oc3ccc(COCC(N=Cc4ccccn4)c4ccccc4)cc3c2c1)c1ccccc1)c1ccccn1.[Fe+2].[Fe+2]` (stereo not shown) [5h], the DC50 in assay [1] is 870 ± 60 nM and 890 ± 20 nM; in assay [2], 630 ± 40 nM and 640 ± 50 nM.
